Reference: PMC6156383 (Frontiers in Psychiatry, 2018)
Where “and” joins values, the source holds several entries; their conditions need not be identical. Equal entries are not always repeated. Structures can show the parent of a compound that is named as a salt.

Tests used:
KOP receptor [1] = target: T1, KOP receptor (Homo sapiens, UniProt P41145); type: binding
T1 construct: expressed in transfected cells

DOP receptor [2] = target: T2, DOP receptor (Homo sapiens, UniProt P41143); type: binding
T2 construct: expressed in transfected cells
T2 sequence (P41143 whole entry): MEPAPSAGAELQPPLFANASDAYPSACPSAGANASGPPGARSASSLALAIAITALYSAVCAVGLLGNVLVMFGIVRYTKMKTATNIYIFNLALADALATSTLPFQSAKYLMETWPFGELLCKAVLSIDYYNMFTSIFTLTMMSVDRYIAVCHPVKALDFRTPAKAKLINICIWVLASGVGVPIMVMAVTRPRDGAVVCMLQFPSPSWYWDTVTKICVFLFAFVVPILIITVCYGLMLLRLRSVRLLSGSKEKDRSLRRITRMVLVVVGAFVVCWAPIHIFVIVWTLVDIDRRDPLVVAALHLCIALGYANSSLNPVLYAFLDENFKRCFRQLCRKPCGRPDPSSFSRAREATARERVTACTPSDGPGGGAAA

MOP receptor [3] = target: T3, MOP receptor (Homo sapiens, UniProt P35372); type: binding
T3 construct: expressed in transfected cells
T3 sequence (P35372 whole entry): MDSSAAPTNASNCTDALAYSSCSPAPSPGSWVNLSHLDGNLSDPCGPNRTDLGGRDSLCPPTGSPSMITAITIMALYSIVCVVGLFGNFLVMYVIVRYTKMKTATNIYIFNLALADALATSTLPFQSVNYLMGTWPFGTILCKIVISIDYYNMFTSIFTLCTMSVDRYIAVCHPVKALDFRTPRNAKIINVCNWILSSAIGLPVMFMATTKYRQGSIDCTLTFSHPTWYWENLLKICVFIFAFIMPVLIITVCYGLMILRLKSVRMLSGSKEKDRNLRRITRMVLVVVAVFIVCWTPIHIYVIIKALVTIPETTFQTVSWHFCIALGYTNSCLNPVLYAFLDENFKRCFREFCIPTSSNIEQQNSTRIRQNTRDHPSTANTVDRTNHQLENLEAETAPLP

KOP receptor [4] = target: T1, KOP receptor; type: biochemical
NOP receptor [5] = target: T4, NOP receptor (Homo sapiens, UniProt P41146); assay: [35S]GTPγS binding stimulation (agonist), CHO membranes; type: biochemical; details: for NOP % stim: [35S]GTPγS stimulation relative to standard agonist N/OFQ; for EC50: [35S]GTPγS stimulation, average ± SD
T4 construct: expressed in transfected cells
T4 sequence (P41146 whole entry): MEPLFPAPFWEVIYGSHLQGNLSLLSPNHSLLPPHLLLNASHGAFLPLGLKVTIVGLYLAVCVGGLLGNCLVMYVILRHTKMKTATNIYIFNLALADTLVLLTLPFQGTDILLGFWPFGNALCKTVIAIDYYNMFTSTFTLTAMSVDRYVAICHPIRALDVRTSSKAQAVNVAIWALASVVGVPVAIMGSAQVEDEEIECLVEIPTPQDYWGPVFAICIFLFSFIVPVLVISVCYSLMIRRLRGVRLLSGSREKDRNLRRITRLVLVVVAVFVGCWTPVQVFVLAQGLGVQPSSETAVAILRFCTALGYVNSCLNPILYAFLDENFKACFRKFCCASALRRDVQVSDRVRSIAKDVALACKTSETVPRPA

DOP receptor [6] = target: T2, DOP receptor; assay: as above; type: biochemical; details: for DOP % stim: [35S]GTPγS stimulation relative to standard agonist DPDPE; for EC50: [35S]GTPγS stimulation, * = too little stimulation (if < 15% an EC50 was not always determined)
MOP receptor [7] = target: T3, MOP receptor; type: biochemical
NOP receptor [8] = target: T4, NOP receptor; type: binding
CD1 mice = assay: Mouse tail flick assay (radiant heat, acute thermal nociception); type: in vivo
MOP receptor [9] = target: T3, MOP receptor; assay: [35S]GTPγS antagonist assay and Schild analysis versus DAMGO; type: biochemical; details: for Type of antagonism at MOP: Schild analysis; for MOP pA2 / MOP Ke: antagonist activity in [35S]GTPγS assay, Schild analysis versus DAMGO; for MOP Ke: unit not given
KOP receptor [10] = target: T1, KOP receptor; assay: [35S]GTPγS antagonist assay versus U69593; type: biochemical
DOP receptor [11] = target: T2, DOP receptor; assay: [35S]GTPγS antagonist assay versus DPDPE; type: biochemical
NOP receptor [12] = target: T4, NOP receptor; assay: [35S]GTPγS antagonist assay versus N/OFQ; type: biochemical

T1 sequence (P41145 whole entry): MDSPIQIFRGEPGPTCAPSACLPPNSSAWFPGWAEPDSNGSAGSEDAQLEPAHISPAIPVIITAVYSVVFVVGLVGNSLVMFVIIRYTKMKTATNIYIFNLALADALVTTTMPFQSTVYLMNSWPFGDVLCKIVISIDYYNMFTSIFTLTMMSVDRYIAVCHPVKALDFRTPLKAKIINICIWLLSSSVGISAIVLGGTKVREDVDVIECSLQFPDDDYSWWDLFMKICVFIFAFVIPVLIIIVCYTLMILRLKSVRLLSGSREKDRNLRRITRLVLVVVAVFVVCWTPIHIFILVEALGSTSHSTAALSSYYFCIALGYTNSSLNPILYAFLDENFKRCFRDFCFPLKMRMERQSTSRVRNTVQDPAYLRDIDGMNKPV

SMILES | Ki (KOP receptor [1]) [nM] | Ki (DOP receptor [2]) [nM] | Ki (MOP receptor [3]) [nM] | EC50 (KOP receptor [4]) [nM] | KOP % stim (KOP receptor [4]) | NOP % stim (NOP receptor [5]) [%] | EC50 (NOP receptor [5]) [nM] | DOP % stim (DOP receptor [6]) [%] | EC50 (DOP receptor [6]) [nM] | EC50 (MOP receptor [7]) [nM] | MOP % stim (MOP receptor [7]) [%] | Ki (NOP receptor [8]) [nM] | also measured
O=C(Cc1ccccc1)O[C@@]12CCC(=O)[C@@H]3Oc4c(O)ccc5c4[C@@]31CCN(CC1CC1)[C@@H]2C5 [Compound 7a, 14β-phenylacetyl-17-cyclopropylmethyl-7,8-dihydronoroxymorphinone] | 1.14 ± 0.46 | 3.1 ± 0.6 | 0.86 ± 0.18 | 1.2 ± 0.6 | 44.5 ± 13% | 28.1 ± 4.8 | 401 ± 161 | 30.5 ± 5.5 | 5.6 ± 0.4 | 3.8 ± 1.8 | 31.6 ± 4.2 | 127 ± 17 | –
O=C(Cc1ccccc1Cl)O[C@@]12CCC(=O)[C@@H]3Oc4c(O)ccc5c4[C@@]31CCN(CC1CC1)[C@@H]2C5 [Compound 7k, 14β-(2′-chlorophenylacetyl)-17-cyclopropylmethyl-7,8-dihydronoroxymorphinone] | 1.34 ± 0.5 | 3.24 ± 0.15 | 4.66 ± 1.8 | 13.9 ± 6.4 | 31.3 ± 5.6% | 49.9 ± 0.7 | 808 ± 45.8 | – | – | 2.4 ± 0.6 | 39.3 ± 4.7 | 32.6 ± 2.3 | –
COc1cccc(CC(=O)O[C@@]23CCC(=O)[C@@H]4Oc5c(O)ccc6c5[C@@]42CCN(CC2CC2)C3C6)c1 [Compound 7e, 14β-(3′-methoxyphenylacetyl)-17-cyclopropylmethyl-7,8-dihydronoroxymorphinone] | 1.44 ± 0.33 | 3.61 ± 0.34 | 1.1 ± 0.08 | 1.7 ± 0.4 | 46.3 ± 8.1% | 36.1 ± 0.3 | 374 ± 81.6 | 35.7 ± 0.7 | 9.9 ± 0.2 | 13.3 ± 2.2 | 11.3 ± 1.3 | 50.1 ± 2.7 | –
Cc1ccc(CC(=O)O[C@@]23CCC(=O)[C@@H]4Oc5c(O)ccc6c5[C@@]42CCN(CC2CC2)[C@@H]3C6)cc1 [Compound 7b, 14β-(4′-methylphenylacetyl)-17-cyclopropylmethyl-7,8-dihydronoroxymorphinone] | 1.56 ± 0.28 | 1.7 ± 0.2 | 1.87 ± 0.09 | 6.3 ± 2.2 | 11.5 ± 2.7% | 22.3 ± 1.4 | 169 ± 3.4 | 27.0 ± 4.8 | 3.8 ± 1.1 | 1.6 ± 0.9 | 34.9 ± 2.0 | 36.3 ± 4.2 | –
COc1ccc(CC(=O)O[C@@]23CCC(=O)[C@@H]4Oc5c(O)ccc6c5[C@@]42CCN(CC2CC2)[C@@H]3C6)cc1 [Compound 7f, 14β-(4′-methoxyphenylacetyl)-17-cyclopropylmethyl-7,8-dihydronoroxymorphinone] | 1.9 ± 0.42 | 2.56 ± 0.48 | 1.08 ± 0.33 | – | 6.5 ± 3.3% | 8.9 ± 1.0 | 61.8 ± 20.1 | 18.4 ± 1.3 | 59.4 ± 19.6 | – | 7.8 ± 3.5 | 49.8 ± 7.1 | Tail flick latency versus vehicle controls (CD1 mice; 1 mg/kg s.c.): significant increase in tail flick latency compared to vehicle controls at the 60- and 120-min time points; Effect on morphine-induced antinociception, tail flick (CD1 mice; 1 mg/kg s.c. given 10 min before morphine, P < 0.05): morphine-induced antinociception was attenuated at the 30- and 60-min time points; Antinociception versus vehicle controls, tail flick (CD1 mice; 3.0 mg/kg s.c.): significant antinociception at the 30- and 120-min time points; Antinociception (%MPE), tail flick (CD1 mice; 1 and 3 mg/kg s.c., 30, 60, 120 min): low levels of antinociception; Type of antagonism at MOP (MOP receptor [9]): very potent competitive antagonists; MOP pA2 (MOP receptor [9]): 10.58 ± 0.13 and 10.58 ± 0.14; MOP Ke (MOP receptor [9]): 0.026 ± 0.008; IC50 (MOP receptor [9]; in the presence of 1 μM DAMGO, read-out: IC50 inhibiting DAMGO stimulation of [35S]GTPγS binding, MOP): 12.4 ± 2.25 nM; Type of inhibition at KOP (KOP receptor [10]; [35S]GTPγS antagonist assay): non-competitive; IC50 (KOP receptor [10]; [35S]GTPγS, in the presence of 1 μM U69593): 12.2 ± 0.11 nM; Type of inhibition at DOP (DOP receptor [11]; [35S]GTPγS antagonist assay): non-competitive; IC50 (DOP receptor [11]; [35S]GTPγS, in the presence of 1 μM DPDPE): 48.1 ± 14.1 nM; Type of inhibition at NOP (NOP receptor [12]; [35S]GTPγS antagonist assay): non-competitive; IC50 (NOP receptor [12]; [35S]GTPγS, in the presence of 100 nM N/OFQ): 5640 nM
Cc1cccc(CC(=O)O[C@@]23CCC(=O)[C@@H]4Oc5c(O)ccc6c5[C@@]42CCN(CC2CC2)[C@@H]3C6)c1 [Compound 7d, 14β-(3′-methylphenylacetyl)-17-cyclopropylmethyl-7,8-dihydronoroxymorphinone] | 2.8 ± 0.91 | 5.58 ± 0.22 | 1.91 ± 0.51 | 1 ± 0.3 | 46.4 ± 3.6% | 59.3 ± 2.4 | 855 ± 185 | 15.8 ± 0.1 | 21.3 ± 2.2 | 5.2 ± 2 | 40.1 ± 4.4 | 49.9 ± 3.5 | –
COc1ccccc1CC(=O)O[C@@]12CCC(=O)[C@@H]3Oc4c(O)ccc5c4[C@@]31CCN(CC1CC1)[C@@H]2C5 [Compound 7h, 14β-(2′-methoxyphenylacetyl)-17-cyclopropylmethyl-7,8-dihydronoroxymorphinone] | 3.52 ± 0.9 | – | 3.77 ± 0.9 | 1.6 ± 0.3 | 50.4 ± 6.0% | 40.8 ± 5.4 | 479 ± 33.3 | 19.2 ± 4.9 | – | 0.5 ± 0.1 | 37.3 ± 0.7 | 62.3 ± 4.9 | –
CN1CC[C@]23c4c5ccc(O)c4O[C@H]2[C@@H](O)C=C[C@H]3[C@H]1C5 [morphine, Morphine hydrochloride, reference compound] | – | – | – | – | – | – | – | – | – | – | – | – | %MPE, tail flick, positive control (CD1 mice; 3 mg/kg, 30, 60, 120 min): anticipated increase in %MPE at all time points
O=C(Cc1ccccc1F)O[C@@]12CCC(=O)[C@@H]3Oc4c(O)ccc5c4[C@@]31CCN(CC1CC1)[C@@H]2C5 [Compound 7i, 14β-(2′-fluorophenylacetyl)-17-cyclopropylmethyl-7,8-dihydronoroxymorphinone] | 4.55 ± 0.7 | 4.07 ± 0.91 | 2.59 ± 1.1 | 4 ± 2 | 43.8 ± 4.7% | 14.5 ± 2.9 | 94.1 ± 24.7 | – | – | 2 ± 0.7 | 27.9 ± 2.8 | 69.7 ± 2.4 | –
Cc1ccccc1CC(=O)O[C@@]12CCC(=O)[C@@H]3Oc4c(O)ccc5c4[C@@]31CCN(CC1CC1)[C@@H]2C5 [Compound 7c, 14β-(2′-methylphenylacetyl)-17-cyclopropylmethyl-7,8-dihydronoroxymorphinone] | 1.69 ± 1.2 | 1.97 ± 0.19 | 3.59 ± 0.86 | 2.9 ± 1.8 | 86% and 86.3 ± 6.5% | 21.1 ± 1.4 | 106 ± 32.2 | 12.6 ± 3.1 | 201 ± 59 | 2.2 ± 0.2 | 41.9 ± 1.4 | 44.1 ± 3.1 | –
O=C(Cc1ccc2c(c1)OCO2)O[C@@]12CCC(=O)[C@@H]3Oc4c(O)ccc5c4[C@@]31CCN(CC1CC1)[C@@H]2C5 [Compound 7g, 14β-(3′,4′-dioxymethylenephenylacetyl)-17-cyclopropylmethyl-7,8-dihydronoroxymorphinone] | 1.2 ± 0.42 | 1.25 ± 0.2 | 0.99 ± 0.35 | 5.4 ± 0.1 | 41.1 ± 0.9% | 43.5 ± 9.4 | 562 ± 67.5 | – | – | – | 12.1 ± 3.7 | 94.3 ± 28 | Type of antagonism at MOP (MOP receptor [9]): very potent competitive antagonists; MOP pA2 (MOP receptor [9]): 10.29 ± 0.24; MOP Ke (MOP receptor [9]): 0.051 ± 0.018
O=C(Cc1ccc(Cl)cc1)O[C@@]12CCC(=O)[C@@H]3Oc4c(O)ccc5c4[C@@]31CCN(CC1CC1)C2C5 [Compound 7j, 14β-(4′-chlorophenylacetyl)-17-cyclopropylmethyl-7,8-dihydronoroxymorphinone] | 3.95 ± 0.59 | 4.95 ± 1.1 | 1.78 ± 0.03 | 5.4 ± 1.3 | 37.1 ± 0.2% | 18.9 ± 2.7 | 298 ± 18.6 | 37.2 ± 0.2 | – | – | 8.2 ± 7.2 | 51.3 ± 14 | Type of antagonism at MOP (MOP receptor [9]): non-competitive; MOP pA2 (MOP receptor [9]): Non-competitive
